This is an account of results in patent US20070053955A1, “Compositions and methods for improving cellular survival and reducing apoptosis after ischemic episode in the brain” (NESTEC S.A., priority 2005, published 2007).

Common to all, as to format: in vivo
Assay [1] has as its system transient cerebral ischemia in an ovariectomized rat model. As to the kind of experiment: Transient middle cerebral artery (tMCA) occlusion, ischemic lesion (infarct) volume by TTC staining. As to conditions: all rats, vs control diet, 60 min tMCA occlusion, 24 h reperfusion (FIG. 1).
Method: Animals. Female Charles Rivers Sprague-Dawley rats (250 g, Wilmington, Mass.) were acclimatized to animal facilities three days prior to surgery with a 12 hour light-dark cycle. Bilateral ovariectomy was performed 2 weeks before diet feeding began. Four weeks after the start of diet feeding, transient middle cerebral artery (tMCA) occlusion under anesthesia was performed following intraperitoneal (i.p.) injection of ketamine (60 mg/kg) and xylazine (10 mg/kg).
Diet and Hormone Administration. Fourteen to 15 rats per group were randomly assigned to one of five treatment groups. These groups were as follows: […]
All diets were fed ad libitum to the rats for four weeks. […] Also once per week, body weights and food intake were determined. […]
Middle cerebral artery occlusion and samples preparation. […] Rectal temperature was monitored and maintained between 36.5 and 37° C. with a heating pad throughout the procedure. […]
Some animals were eliminated from the study during the protocol. The number of animals quantified for lesion volume ranged from 12 to 15 per group.
Statistical methods. Results were analyzed with one-way analysis of variance (ANOVA) using Prism software(Graphpad Inc; San Diego, Calif.). The significance of differences among groups was determined by one-way ANOVA followed by Tukey's multiple comparison tests. All values were expressed as mean±SEM.
Assay [2] shares this test system. As to the kind of experiment: Cerebral ischemia-induced apoptosis, DNA fragmentation by TUNEL staining after tMCA occlusion. The conditions noted are these: mean of three brain regions, normalized to DAPI cell count, vs control diet (FIG. 3).
Assay [3] relates to growth factors and anti-inflammatory proteins. As to the kind of experiment: Expression of growth factors and anti-inflammatory proteins in dogs given supplemental arginine. As to conditions: dietary supplementation.

For the compound `C[C@]12CC[C@@H]3c4ccc(O)cc4CC[C@H]3[C@@H]1CC[C@@H]2O` [Estradiol, 17β-estradiol], in assay [1], the “effect on infarct size / mean infarct volume” value is “reduced infarct size”. Besides, the “reduction of infarct volume” value in assay [1] (diets fed 4 weeks, E2 implant 1 week) was 68%. Besides, in assay [2], the “TUNEL staining / TUNEL-positive cell counts” value is “substantial reduction in TUNEL staining”.

Turning to `N=C(N)NCCC[C@H](N)C(=O)O` [arginine, L-arginine], the “expression of growth factors and anti-inflammatory proteins” value in assay [3] was “increased expression of multiple growth factors and anti-inflammatory proteins in a dose-dependent manner”.
